Experimental data: ChEMBL document CHEMBL1201862, “PubChem BioAssay data set” (2004)
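Cells were grown in 96-well plates and exposed to each compound for 48 hours at five concentrations; endpoints were interpolated linearly between bracketing concentrations, or set to the highest concentration if not reached. GI50 marks 50% less growth.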 The source made the active and inactive calls. Rule as the data show it: active = GI50 up to about 1.1 µM and inactive = higher.

Tests used:
Assay in all cases: NCI anticancer screen, dose series, 48 h
[1] = tested on: UACC-257
[2] = tested on: A498
[3] = tested on: OVCAR-4
[4] = tested on: HL-60
[5] = tested on: SK-MEL-28
[6] = tested on: ACHN
[7] = tested on: NCI-H23
[8] = tested on: NCI-H226
[9] = tested on: MDA-MB-435
[10] = tested on: HOP-92
[11] = tested on: K562
[12] = tested on: MCF7
[13] = tested on: Malme-3M
[14] = tested on: SF-268
[15] = tested on: SK-MEL-5
[16] = tested on: NCI/ADR-RES
[17] = tested on: HCC 2998
[18] = tested on: UO-31
[19] = tested on: SF-539
[20] = tested on: SNB-75
[21] = tested on: CCRF-CEM
[22] = tested on: KM12
[23] = tested on: MDA-MB-231
[24] = tested on: 786-0
[25] = tested on: U-251
[26] = tested on: OVCAR-8
[27] = tested on: COLO 205
[28] = tested on: CAKI-1
[29] = tested on: A549
[30] = tested on: SNB-19
[31] = tested on: PC-3
[32] = tested on: HCT-15
[33] = tested on: SW-620
[34] = tested on: RXF 393
[35] = tested on: SN12C
[36] = tested on: SK-OV-3
[37] = tested on: OVCAR-3
[38] = tested on: TK-10
[39] = tested on: EKVX
[40] = tested on: DU-145
[41] = tested on: Hs-578T
[42] = tested on: HT-29
[43] = tested on: SF-295
[44] = tested on: HOP-62
[45] = tested on: HCT-116
[46] = tested on: BT-549
[47] = tested on: T47D
[48] = tested on: OVCAR-5
[49] = tested on: NCI-H522
[50] = tested on: IGROV-1
[51] = tested on: RPMI-8226
[52] = tested on: LOX IMVI
[53] = tested on: NCI-H460
[54] = tested on: SR
[55] = tested on: UACC-62
[56] = tested on: MOLT-4
[57] = tested on: SK-MEL-2
[58] = tested on: M14
[59] = tested on: MDA-N

## O=c1[nH]nc(-c2ccccc2)n1/N=C/c1cccc([N+](=O)[O-])c1
[1]
  GI50: > 100 µM (inactive)
[2]
  GI50: > 100 µM (inactive)
[3]
  GI50: > 100 µM (inactive)
[4]
  GI50: > 100 µM (inactive)
[5]
  GI50: > 100 µM (inactive)
[6]
  GI50: > 100 µM (inactive)
[7]
  GI50: > 100 µM (inactive)
[8]
  GI50: > 100 µM (inactive)
[9]
  GI50: > 100 µM (inactive)
[10]
  GI50: > 100 µM (inactive)
[11]
  GI50: > 100 µM (inactive)
[12]
  GI50: > 100 µM (inactive)
[13]
  GI50: > 100 µM (inactive)
[14]
  GI50: > 100 µM (inactive)
[15]
  GI50: > 100 µM (inactive)
[16]
  GI50: 41.4 µM (inactive)
[17]
  GI50: > 100 µM (inactive)
[18]
  GI50: > 100 µM (inactive)
[19]
  GI50: 30.1 µM (inactive)
[20]
  GI50: > 100 µM (inactive)
[21]
  GI50: > 100 µM (inactive)
[22]
  GI50: > 100 µM (inactive)
[23]
  GI50: > 100 µM (inactive)
[24]
  GI50: > 100 µM (inactive)
[25]
  GI50: 41.5 µM (inactive)
[26]
  GI50: 93.5 µM (inactive)
[27]
  GI50: > 100 µM (inactive)
[28]
  GI50: > 100 µM (inactive)
[29]
  GI50: > 100 µM (inactive)
[30]
  GI50: 98.6 µM (inactive)
[31]
  GI50: > 100 µM (inactive)
[32]
  GI50: > 100 µM
[33]
  GI50: > 100 µM (inactive)
[34]
  GI50: 49.8 µM (inactive)
[35]
  GI50: > 100 µM (inactive)
[36]
  GI50: 14.9 µM (inactive)
[37]
  GI50: > 100 µM (inactive)
[38]
  GI50: > 100 µM (inactive)
[39]
  GI50: > 100 µM (inactive)
[40]
  GI50: > 100 µM (inactive)
[41]
  GI50: > 100 µM (inactive)
[42]
  GI50: > 100 µM (inactive)
[43]
  GI50: 59.7 µM (inactive)
[44]
  GI50: 28.7 µM (inactive)
[45]
  GI50: > 100 µM (inactive)
[46]
  GI50: > 100 µM (inactive)
[47]
  GI50: > 100 µM (inactive)
[48]
  GI50: > 100 µM (inactive)
[49]
  GI50: 8.15 µM (inactive)
[50]
  GI50: > 100 µM (inactive)
[51]
  GI50: > 100 µM (inactive)
[52]
  GI50: > 100 µM (inactive)
[53]
  GI50: 91.6 µM (inactive)
[54]
  GI50: 77.8 µM (inactive)
[55]
  GI50: > 100 µM (inactive)
[56]
  GI50: > 100 µM (inactive)
[57]
  GI50: > 100 µM (inactive)
[58]
  GI50: > 100 µM (inactive)

## CCOC(=O)C(NC(=O)NC(C(=O)OCC)C(=O)OCC)C(=O)OCC
[1]
  GI50: > 10 µM (inactive)
[5]
  GI50: > 100 µM (inactive)
[6]
  GI50: > 100 µM (inactive)
[7]
  GI50: > 100 µM (inactive)
[8]
  GI50: > 100 µM (inactive)
[9]
  GI50: 98.2 µM (inactive)
[10]
  GI50: > 100 µM (inactive)
[11]
  GI50: > 100 µM (inactive)
[12]
  GI50: > 100 µM (inactive)
[13]
  GI50: > 100 µM (inactive)
[14]
  GI50: > 100 µM (inactive)
[15]
  GI50: > 100 µM (inactive)
[16]
  GI50: > 100 µM (inactive)
[17]
  GI50: > 100 µM (inactive)
[18]
  GI50: > 100 µM (inactive)
[19]
  GI50: > 100 µM (inactive)
[24]
  GI50: > 100 µM (inactive)
[25]
  GI50: > 100 µM (inactive)
[26]
  GI50: > 100 µM (inactive)
[28]
  GI50: > 100 µM (inactive)
[29]
  GI50: > 100 µM (inactive)
[30]
  GI50: > 100 µM (inactive)
[31]
  GI50: > 100 µM (inactive)
[32]
  GI50: > 100 µM
[33]
  GI50: > 100 µM (inactive)
[34]
  GI50: > 100 µM (inactive)
[35]
  GI50: > 100 µM (inactive)
[36]
  GI50: > 100 µM (inactive)
[37]
  GI50: > 100 µM (inactive)
[38]
  GI50: > 100 µM (inactive)
[39]
  GI50: > 100 µM (inactive)
[40]
  GI50: > 100 µM (inactive)
[41]
  GI50: > 100 µM (inactive)
[42]
  GI50: > 100 µM (inactive)
[43]
  GI50: 49.9 µM (inactive)
[44]
  GI50: > 100 µM (inactive)
[45]
  GI50: > 100 µM (inactive)
[46]
  GI50: > 100 µM (inactive)
[48]
  GI50: > 100 µM (inactive)
[49]
  GI50: > 100 µM (inactive)
[50]
  GI50: > 100 µM (inactive)
[51]
  GI50: > 100 µM (inactive)
[53]
  GI50: > 100 µM (inactive)
[54]
  GI50: > 100 µM (inactive)
[55]
  GI50: > 100 µM (inactive)
[56]
  GI50: > 100 µM (inactive)
[57]
  GI50: > 100 µM (inactive)
[59]
  GI50: > 100 µM (inactive)
[58]
  GI50: > 100 µM (inactive)

## Nc1c2c(nc3ccccc13)CCCCCC2
[1]
  GI50: 15.4 µM (inactive)
[2]
  GI50: 20.7 µM (inactive)
[4]
  GI50: 7.26 µM (inactive)
[5]
  GI50: 13.8 µM (inactive)
[6]
  GI50: 27.1 µM (inactive)
[7]
  GI50: 42.1 µM (inactive)
[8]
  GI50: 43.3 µM (inactive)
[10]
  GI50: 13.6 µM (inactive)
[11]
  GI50: 21.5 µM (inactive)
[12]
  GI50: 26.9 µM (inactive)
[13]
  GI50: 18 µM (inactive)
[14]
  GI50: 39.3 µM (inactive)
[15]
  GI50: 17.5 µM (inactive)
[16]
  GI50: 37.5 µM (inactive)
[17]
  GI50: 14.4 µM (inactive)
[19]
  GI50: 16.1 µM (inactive)
[21]
  GI50: 15.6 µM (inactive)
[23]
  GI50: 18.5 µM (inactive)
[24]
  GI50: 16.4 µM (inactive)
[25]
  GI50: 26.8 µM (inactive)
[26]
  GI50: 30.4 µM (inactive)
[27]
  GI50: 14.2 µM (inactive)
[31]
  GI50: 20.8 µM (inactive)
[32]
  GI50: 30.3 µM
[33]
  GI50: 17.1 µM (inactive)
[35]
  GI50: 40.7 µM (inactive)
[38]
  GI50: 15.2 µM (inactive)
[41]
  GI50: 38.5 µM (inactive)
[45]
  GI50: 20.8 µM (inactive)
[46]
  GI50: 84.5 µM (inactive)
[49]
  GI50: 19.6 µM (inactive)
[50]
  GI50: 22.4 µM (inactive)
[51]
  GI50: 19.1 µM (inactive)
[52]
  GI50: 16 µM (inactive)
[53]
  GI50: 16.6 µM (inactive)
[54]
  GI50: 15.7 µM (inactive)
[55]
  GI50: 16.6 µM (inactive)
[56]
  GI50: 27.2 µM (inactive)
[57]
  GI50: 13.7 µM (inactive)
[59]
  GI50: 16.5 µM (inactive)

## CCSCCCN(CCCSCC)CCCSCC
[1]
  GI50: > 100 µM (inactive)
[3]
  GI50: > 100 µM (inactive)
[4]
  GI50: 80.9 µM (inactive)
[5]
  GI50: > 100 µM (inactive)
[7]
  GI50: > 100 µM (inactive)
[9]
  GI50: > 100 µM (inactive)
[10]
  GI50: 5.16 µM (inactive)
[11]
  GI50: > 100 µM (inactive)
[12]
  GI50: > 100 µM (inactive)
[14]
  GI50: > 100 µM (inactive)
[15]
  GI50: > 100 µM (inactive)
[16]
  GI50: > 100 µM (inactive)
[17]
  GI50: > 100 µM (inactive)
[18]
  GI50: > 100 µM (inactive)
[19]
  GI50: > 100 µM (inactive)
[20]
  GI50: > 100 µM (inactive)
[21]
  GI50: > 100 µM (inactive)
[22]
  GI50: > 100 µM (inactive)
[23]
  GI50: > 100 µM (inactive)
[24]
  GI50: > 100 µM (inactive)
[25]
  GI50: > 100 µM (inactive)
[26]
  GI50: > 100 µM (inactive)
[27]
  GI50: > 100 µM (inactive)
[29]
  GI50: > 100 µM (inactive)
[30]
  GI50: > 100 µM (inactive)
[31]
  GI50: > 100 µM (inactive)
[32]
  GI50: > 100 µM
[33]
  GI50: > 100 µM (inactive)
[35]
  GI50: > 100 µM (inactive)
[36]
  GI50: > 100 µM (inactive)
[37]
  GI50: > 100 µM (inactive)
[40]
  GI50: > 100 µM (inactive)
[42]
  GI50: > 100 µM (inactive)
[43]
  GI50: > 100 µM (inactive)
[44]
  GI50: > 100 µM (inactive)
[45]
  GI50: > 100 µM (inactive)
[46]
  GI50: > 100 µM (inactive)
[47]
  GI50: > 100 µM (inactive)
[48]
  GI50: > 100 µM (inactive)
[49]
  GI50: 45.8 µM (inactive)
[50]
  GI50: 88.3 µM (inactive)
[52]
  GI50: > 100 µM (inactive)
[53]
  GI50: > 100 µM (inactive)
[54]
  GI50: > 100 µM (inactive)
[55]
  GI50: > 100 µM (inactive)
[56]
  GI50: > 100 µM (inactive)
[59]
  GI50: > 100 µM (inactive)
[58]
  GI50: > 100 µM (inactive)
